# According to PubChem BioAssay (NCI):
#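 96-well plates; 48 h exposure; 5 concentrations. Endpoints by linear interpolation between flanking doses. Not reached: highest tested concentration assigned. TGI denotes the concentration required for complete inhibition of growth.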
# Tests used:
# Experiment in all cases: NCI-60 cell line screen, 48 h
# OVCAR-4 ovarian = system: OVCAR-4 ovarian
# TK-10 renal = system: TK-10 renal
# ACHN renal = system: ACHN renal
# 786-0 renal = system: 786-0 renal
# MOLT-4 leukemia = system: MOLT-4 leukemia
# U251 CNS = system: U251 CNS
# MALME-3M melanoma = system: MALME-3M melanoma
# DMS 273 small cell lung = system: DMS 273 small cell lung
# SNB-19 CNS = system: SNB-19 CNS
# SW-620 colon = system: SW-620 colon
# LXFL 529 NSCLC = system: LXFL 529 NSCLC
# M14 melanoma = system: M14 melanoma
# SF-539 CNS = system: SF-539 CNS
# K-562 leukemia = system: K-562 leukemia
# CCRF-CEM leukemia = system: CCRF-CEM leukemia
# HCT-116 colon = system: HCT-116 colon
# DLD-1 colon = system: DLD-1 colon
# SK-OV-3 ovarian = system: SK-OV-3 ovarian
# UACC-62 melanoma = system: UACC-62 melanoma
# SNB-78 CNS = system: SNB-78 CNS
# A549 NSCLC = system: A549 NSCLC
# SF-268 CNS = system: SF-268 CNS
# KM12 colon = system: KM12 colon
# UO-31 renal = system: UO-31 renal
# HT29 colon = system: HT29 colon
# SK-MEL-28 melanoma = system: SK-MEL-28 melanoma
# OVCAR-8 ovarian = system: OVCAR-8 ovarian
# SK-MEL-2 melanoma = system: SK-MEL-2 melanoma
# COLO 205 colon = system: COLO 205 colon
# LOX IMVI melanoma = system: LOX IMVI melanoma
# SNB-75 CNS = system: SNB-75 CNS
# EKVX NSCLC = system: EKVX NSCLC
# SK-MEL-5 melanoma = system: SK-MEL-5 melanoma
# OVCAR-3 ovarian = system: OVCAR-3 ovarian
# IGROV1 ovarian = system: IGROV1 ovarian
# HOP-18 NSCLC = system: HOP-18 NSCLC
# A498 renal = system: A498 renal
# OVCAR-5 ovarian = system: OVCAR-5 ovarian
# UACC-257 melanoma = system: UACC-257 melanoma
# NCI-H23 lung = system: NCI-H23 lung
# SR leukemia = system: SR leukemia
# M19-MEL melanoma = system: M19-MEL melanoma
# RXF-631 renal = system: RXF-631 renal
# KM20L2 colon = system: KM20L2 colon
# XF 498 CNS = system: XF 498 CNS
# HOP-62 NSCLC = system: HOP-62 NSCLC
# HCT-15 colon = system: HCT-15 colon
# HCC-2998 colon = system: HCC-2998 colon
# RPMI-8226 leukemia = system: RPMI-8226 leukemia
# SF-295 CNS = system: SF-295 CNS
# NCI-H522 lung = system: NCI-H522 lung
# NCI-H460 lung = system: NCI-H460 lung
# NCI-H226 lung = system: NCI-H226 lung
# HL-60(TB) leukemia = system: HL-60(TB) leukemia
# RXF 393 renal = system: RXF 393 renal
# SN12C renal = system: SN12C renal
# DMS 114 small cell lung = system: DMS 114 small cell lung
# CAKI-1 renal = system: CAKI-1 renal
# HOP-92 NSCLC = system: HOP-92 NSCLC
smiles,measurement,setting,value
COC(=O)/C(=N\NC(N)=S)C(C(=O)OC)C(=O)C(=O)Nc1ccc(C)cc1 (centres undefined),TGI,OVCAR-4 ovarian,> 100 µM
same,TGI,TK-10 renal,> 100 µM
same,TGI,ACHN renal,> 100 µM
same,TGI,786-0 renal,> 100 µM
same,TGI,MOLT-4 leukemia,> 100 µM
same,TGI,U251 CNS,> 100 µM
same,TGI,MALME-3M melanoma,> 100 µM
same,TGI,DMS 273 small cell lung,> 100 µM
same,TGI,SNB-19 CNS,> 100 µM
same,TGI,SW-620 colon,> 100 µM
same,TGI,LXFL 529 NSCLC,> 100 µM
same,TGI,M14 melanoma,> 100 µM
same,TGI,SF-539 CNS,> 100 µM
same,TGI,K-562 leukemia,> 100 µM
same,TGI,CCRF-CEM leukemia,> 100 µM
same,TGI,HCT-116 colon,> 100 µM
same,TGI,DLD-1 colon,> 100 µM
same,TGI,SK-OV-3 ovarian,> 100 µM
same,TGI,UACC-62 melanoma,> 100 µM
same,TGI,SNB-78 CNS,> 100 µM
same,TGI,A549 NSCLC,> 100 µM
same,TGI,SF-268 CNS,> 100 µM
same,TGI,KM12 colon,> 100 µM
same,TGI,UO-31 renal,> 100 µM
same,TGI,HT29 colon,> 100 µM
same,TGI,SK-MEL-28 melanoma,> 100 µM
same,TGI,OVCAR-8 ovarian,> 100 µM
same,TGI,SK-MEL-2 melanoma,> 100 µM
same,TGI,COLO 205 colon,> 100 µM
same,TGI,LOX IMVI melanoma,> 100 µM
same,TGI,SNB-75 CNS,> 100 µM
same,TGI,EKVX NSCLC,> 100 µM
same,TGI,SK-MEL-5 melanoma,> 100 µM
same,TGI,OVCAR-3 ovarian,> 100 µM
same,TGI,IGROV1 ovarian,> 100 µM
same,TGI,HOP-18 NSCLC,> 100 µM
same,TGI,A498 renal,> 100 µM
same,TGI,OVCAR-5 ovarian,> 100 µM
same,TGI,UACC-257 melanoma,> 100 µM
same,TGI,NCI-H23 lung,> 100 µM
same,TGI,SR leukemia,> 100 µM
same,TGI,M19-MEL melanoma,> 100 µM
same,TGI,RXF-631 renal,> 100 µM
same,TGI,KM20L2 colon,> 100 µM
same,TGI,XF 498 CNS,> 100 µM
same,TGI,HOP-62 NSCLC,> 100 µM
same,TGI,HCT-15 colon,> 100 µM
same,TGI,HCC-2998 colon,> 100 µM
same,TGI,RPMI-8226 leukemia,> 100 µM
same,TGI,SF-295 CNS,> 100 µM
same,TGI,NCI-H522 lung,> 100 µM
same,TGI,NCI-H460 lung,> 100 µM
same,TGI,NCI-H226 lung,> 100 µM
same,TGI,HL-60(TB) leukemia,> 100 µM
same,TGI,RXF 393 renal,> 100 µM
same,TGI,SN12C renal,> 100 µM
same,TGI,DMS 114 small cell lung,> 100 µM
same,TGI,CAKI-1 renal,> 100 µM
Cc1ccccc1C(=O)c1cc(O)ccc1O,TGI,OVCAR-4 ovarian,> 100 µM
same,TGI,TK-10 renal,> 100 µM
same,TGI,ACHN renal,> 100 µM
same,TGI,786-0 renal,> 100 µM
same,TGI,MOLT-4 leukemia,> 100 µM
same,TGI,U251 CNS,> 100 µM
same,TGI,MALME-3M melanoma,> 100 µM
same,TGI,DMS 273 small cell lung,> 100 µM
same,TGI,SNB-19 CNS,> 100 µM
same,TGI,SW-620 colon,> 100 µM
same,TGI,LXFL 529 NSCLC,> 100 µM
same,TGI,M14 melanoma,> 100 µM
same,TGI,SF-539 CNS,> 100 µM
same,TGI,K-562 leukemia,> 100 µM
same,TGI,CCRF-CEM leukemia,> 100 µM
same,TGI,HCT-116 colon,> 100 µM
same,TGI,DLD-1 colon,> 100 µM
same,TGI,SK-OV-3 ovarian,> 100 µM
same,TGI,UACC-62 melanoma,> 100 µM
same,TGI,SNB-78 CNS,> 100 µM
same,TGI,A549 NSCLC,> 100 µM
same,TGI,SF-268 CNS,> 100 µM
same,TGI,KM12 colon,> 100 µM
same,TGI,UO-31 renal,> 100 µM
same,TGI,HT29 colon,> 100 µM
same,TGI,OVCAR-8 ovarian,> 100 µM
same,TGI,SK-MEL-2 melanoma,> 100 µM
same,TGI,HOP-92 NSCLC,> 100 µM
same,TGI,COLO 205 colon,> 100 µM
same,TGI,SNB-75 CNS,> 100 µM
same,TGI,EKVX NSCLC,> 100 µM
same,TGI,SK-MEL-5 melanoma,> 100 µM
same,TGI,OVCAR-3 ovarian,> 100 µM
same,TGI,IGROV1 ovarian,> 100 µM
same,TGI,HOP-18 NSCLC,> 100 µM
same,TGI,A498 renal,> 100 µM
same,TGI,OVCAR-5 ovarian,> 100 µM
same,TGI,UACC-257 melanoma,> 100 µM
same,TGI,NCI-H23 lung,> 100 µM
same,TGI,SR leukemia,> 100 µM
same,TGI,M19-MEL melanoma,> 100 µM
same,TGI,RXF-631 renal,> 100 µM
same,TGI,KM20L2 colon,> 100 µM
same,TGI,XF 498 CNS,> 100 µM
same,TGI,HOP-62 NSCLC,> 100 µM
same,TGI,HCT-15 colon,> 100 µM
same,TGI,HCC-2998 colon,> 100 µM
same,TGI,RPMI-8226 leukemia,> 100 µM
same,TGI,SF-295 CNS,> 100 µM
same,TGI,NCI-H522 lung,99.1 µM
same,TGI,NCI-H460 lung,> 100 µM
same,TGI,NCI-H226 lung,> 100 µM
same,TGI,HL-60(TB) leukemia,> 100 µM
same,TGI,RXF 393 renal,> 100 µM
same,TGI,SN12C renal,> 100 µM
same,TGI,DMS 114 small cell lung,> 100 µM
same,TGI,CAKI-1 renal,> 100 µM
CSc1nc(SC)c2c(C#N)[nH]nc2n1,TGI,OVCAR-4 ovarian,> 100 µM
same,TGI,TK-10 renal,> 100 µM
same,TGI,ACHN renal,> 100 µM
same,TGI,786-0 renal,> 100 µM
same,TGI,MOLT-4 leukemia,> 100 µM
same,TGI,U251 CNS,> 100 µM
same,TGI,MALME-3M melanoma,> 100 µM
same,TGI,DMS 273 small cell lung,> 100 µM
same,TGI,SNB-19 CNS,> 100 µM
same,TGI,SW-620 colon,> 100 µM
same,TGI,M14 melanoma,> 100 µM
same,TGI,SF-539 CNS,> 100 µM
same,TGI,K-562 leukemia,> 100 µM
same,TGI,CCRF-CEM leukemia,> 100 µM
same,TGI,DLD-1 colon,> 100 µM
same,TGI,SK-OV-3 ovarian,> 100 µM
same,TGI,UACC-62 melanoma,> 100 µM
same,TGI,SNB-78 CNS,> 100 µM
same,TGI,A549 NSCLC,> 100 µM
same,TGI,SF-268 CNS,> 100 µM
same,TGI,KM12 colon,> 100 µM
same,TGI,UO-31 renal,> 100 µM
same,TGI,HT29 colon,> 100 µM
same,TGI,SK-MEL-28 melanoma,> 100 µM
same,TGI,OVCAR-8 ovarian,> 100 µM
same,TGI,SK-MEL-2 melanoma,> 100 µM
same,TGI,HOP-92 NSCLC,> 100 µM
same,TGI,COLO 205 colon,> 100 µM
same,TGI,LOX IMVI melanoma,> 100 µM
same,TGI,SNB-75 CNS,> 100 µM
same,TGI,EKVX NSCLC,> 100 µM
same,TGI,SK-MEL-5 melanoma,> 100 µM
same,TGI,OVCAR-3 ovarian,> 100 µM
same,TGI,IGROV1 ovarian,> 100 µM
same,TGI,A498 renal,> 100 µM
same,TGI,UACC-257 melanoma,> 100 µM
same,TGI,NCI-H23 lung,> 100 µM
same,TGI,SR leukemia,> 100 µM
same,TGI,M19-MEL melanoma,> 100 µM
same,TGI,RXF-631 renal,> 100 µM
same,TGI,KM20L2 colon,> 100 µM
same,TGI,XF 498 CNS,> 100 µM
same,TGI,HOP-62 NSCLC,> 100 µM
same,TGI,HCT-15 colon,> 100 µM
same,TGI,HCC-2998 colon,> 100 µM
same,TGI,RPMI-8226 leukemia,> 100 µM
same,TGI,SF-295 CNS,> 100 µM
same,TGI,NCI-H522 lung,> 100 µM
same,TGI,NCI-H460 lung,> 100 µM
same,TGI,NCI-H226 lung,> 100 µM
same,TGI,RXF 393 renal,> 100 µM
same,TGI,SN12C renal,> 100 µM
same,TGI,DMS 114 small cell lung,> 100 µM
same,TGI,CAKI-1 renal,> 100 µM
